SMILES strings stand for the structures.

Series [1] concerns the target T1, Toll-like receptor 7 (Homo sapiens, UniProt Q9NYK1).
T1 sequence (Q9NYK1 whole entry): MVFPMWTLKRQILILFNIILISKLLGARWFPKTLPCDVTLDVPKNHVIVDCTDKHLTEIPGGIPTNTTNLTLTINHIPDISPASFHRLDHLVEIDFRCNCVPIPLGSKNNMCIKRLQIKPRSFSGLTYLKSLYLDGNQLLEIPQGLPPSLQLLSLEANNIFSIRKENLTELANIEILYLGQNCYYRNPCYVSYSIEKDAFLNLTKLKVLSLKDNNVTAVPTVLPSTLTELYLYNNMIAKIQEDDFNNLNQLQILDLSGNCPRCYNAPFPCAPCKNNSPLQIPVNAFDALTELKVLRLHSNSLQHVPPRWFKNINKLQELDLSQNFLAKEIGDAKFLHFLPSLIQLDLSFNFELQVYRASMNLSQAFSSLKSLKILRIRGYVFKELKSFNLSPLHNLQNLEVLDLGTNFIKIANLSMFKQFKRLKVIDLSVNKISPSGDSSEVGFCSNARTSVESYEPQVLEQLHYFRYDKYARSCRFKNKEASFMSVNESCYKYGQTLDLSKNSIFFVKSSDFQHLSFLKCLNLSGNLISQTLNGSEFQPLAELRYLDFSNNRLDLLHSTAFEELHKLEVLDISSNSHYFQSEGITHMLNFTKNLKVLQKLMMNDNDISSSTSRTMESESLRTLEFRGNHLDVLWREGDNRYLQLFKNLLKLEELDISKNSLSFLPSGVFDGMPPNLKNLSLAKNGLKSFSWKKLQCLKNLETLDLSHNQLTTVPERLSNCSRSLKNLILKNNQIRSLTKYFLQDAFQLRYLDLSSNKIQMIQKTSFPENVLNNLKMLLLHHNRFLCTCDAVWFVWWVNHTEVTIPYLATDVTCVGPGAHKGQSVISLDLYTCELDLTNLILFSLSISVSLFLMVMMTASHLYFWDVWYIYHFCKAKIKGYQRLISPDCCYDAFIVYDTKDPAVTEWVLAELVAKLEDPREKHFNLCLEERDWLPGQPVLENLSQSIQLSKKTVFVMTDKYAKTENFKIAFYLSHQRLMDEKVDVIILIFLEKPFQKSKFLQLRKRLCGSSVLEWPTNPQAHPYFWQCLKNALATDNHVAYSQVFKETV
Description: Agonist activity at human TLR7 expressed in HEK-Blue-7 cells assessed as increase in NF-kappaB activation by sAP assay. Format: functional, cell-based.

A short description of series [2]: Drug uptake in human CD3-/CD56+ natural killer cells treated for 30 mins by flow cytometry. The settings on record: nk cell, 0.5 h. Format: ADME. On the technique in general: In flow cytometry, cells or beads pass a laser one at a time.
Series [3] in a line: Drug uptake in human CD3-/CD56- B lymphocytes treated for 30 mins by flow cytometry. Format: ADME, cell-based. The settings on record: b-cell, 0.5 h.
Series [4] in a line: Drug uptake in human CD3+/CD56- T lymphocytes treated for 30 mins by flow cytometry. It is filed as ADME, cell-based. The settings on record: t-cell, 0.5 h.
Series [5] is described as follows: Drug uptake in mouse J774.1 cells assessed as perinuclear localization at 100 nM by confocal fluorescence microscopy. Format: ADME, cell-based. The settings on record: j774.1, 0.1 µM.

For the compound `CCCCc1nc2c(N)nc3ccccc3c2n1Cc1ccc(CNC(=S)Nc2cccc(-c3c4ccc(=O)cc-4oc4cc(O)ccc34)c2C(=O)O)cc1`, the EC50 (in general, the concentration needed to bring the measured effect to its halfway point) in series [1] was 247 nM. The Drug uptake result in series [2], in series [3] and in series [4] was “Active” throughout.
Take `CCCCc1nc2c(N)nc3ccccc3c2n1Cc1ccc(CNC(=S)Nc2ccc(-c3c4ccc(=[N+](CC)CC)cc-4oc4cc(N(CC)CC)ccc34)c(C(=O)O)c2)cc1`: the EC50 in series [1] worked out at 115 nM.
For the compound `CCCCc1nc2c(N)nc3ccccc3c2n1Cc1ccc(CNC(=S)NCCCCCNC(=O)COc2ccc(C3=[N+]4C(=Cc5ccc(-c6cccs6)n5[B-]4(F)F)C=C3)cc2)cc1`, in series [1], the EC50 worked out at 108 nM. Besides, in series [5], the Drug uptake entry is “Active”.
Regarding `CCCCc1nc2c(N)nc3ccccc3c2n1Cc1cccc2ccccc12`, the EC50 in series [1] turned out to be 396 nM.

Source of the values: ChEMBL document CHEMBL1268985, “Syntheses of fluorescent imidazoquinoline conjugates as probes of Toll-like receptor 7” (Bioorg Med Chem Lett, 2010).
